Like-named read-outs stand apart in the source and are kept apart here.
Biological target: human PAD4 (hPAD4) (Homo sapiens, UniProt Q9UM07)
Test: RFMS Human PAD4 Functional Assay
Type: biochemical
Details: 5 nM hPAD4, 250 μM BAEE
Outline: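 RapidFire ESI-MS quantification, normalised to a modified-citrulline internal standard, after phenyl glyoxal (final 4 mM) derivatisation of the TCA-quenched reaction. The enzyme (10 nM) sat 30 min with compound (up to 50 μM final) before 500 μM BAEE (as added) started a 90 min, 37 °C reaction. Buffer: HEPES pH 7.5, 50 μM calcium, 5 μM TPEN.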

[1] = hPAD4 RFMS IC50, human PAD4, rapid-fire mass spectrum (RFMS) assay
[2] = human PAD4, rapid-fire mass spectrum (RFMS) assay, read-out: hPAD4 RFMS IC50

Chain of human PAD4 (hPAD4) (Q9UM07 whole entry): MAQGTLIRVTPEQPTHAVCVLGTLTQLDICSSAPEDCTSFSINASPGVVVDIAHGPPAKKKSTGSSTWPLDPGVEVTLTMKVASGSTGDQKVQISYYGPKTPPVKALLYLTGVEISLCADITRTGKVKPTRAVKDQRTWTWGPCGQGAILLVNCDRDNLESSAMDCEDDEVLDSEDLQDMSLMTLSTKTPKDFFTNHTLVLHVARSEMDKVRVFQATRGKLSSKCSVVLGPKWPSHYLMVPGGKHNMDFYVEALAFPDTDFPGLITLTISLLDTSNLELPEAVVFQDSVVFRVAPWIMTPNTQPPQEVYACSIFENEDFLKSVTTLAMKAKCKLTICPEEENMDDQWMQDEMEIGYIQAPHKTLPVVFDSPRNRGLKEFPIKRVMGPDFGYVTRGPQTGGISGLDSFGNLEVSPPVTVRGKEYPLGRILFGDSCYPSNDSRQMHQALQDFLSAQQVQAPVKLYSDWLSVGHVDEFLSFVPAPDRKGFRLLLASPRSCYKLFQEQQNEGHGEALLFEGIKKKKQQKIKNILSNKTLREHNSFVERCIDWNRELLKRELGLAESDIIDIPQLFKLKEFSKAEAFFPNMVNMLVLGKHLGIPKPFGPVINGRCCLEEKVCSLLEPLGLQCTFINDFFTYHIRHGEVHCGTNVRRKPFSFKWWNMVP

| SMILES | IC50 [1] | IC50 [2] |
| --- | --- | --- |
| COc1cc(C(=O)N2C[C@H]3CC[C@@H]2[C@@H]3N)cc2nc(-c3cc4cccc(C5CN(C(=O)CC#N)C5)c4n3CC3CC3)n(C)c12 [Example 77, 3-[3-(2-{5-[(1R,4R,7R)-7-amino-2-azabicyclo[2.2.1]heptane-2-carbonyl]-7-methoxy-1-methyl-1H-1,3-benzodiazol-2-yl}-1-(cyclopropylmethyl)-1H-indol-7-yl)azetidin-1-yl]-3-oxopropanenitrile] | 38 nM | – |
| COc1cc(C(=O)N2C[C@H]3CC[C@@H]2[C@@H]3N)cc2nc(-c3cc4cccc(C5CN(S(=O)(=O)c6ccccc6)C5)c4n3CC3CC3)n(C)c12 [Example 83, (1R,4R,7R)-2-(2-{7-[1-(benzenesulfonyl)azetidin-3-yl]-1-(cyclopropylmethyl)-1H-indol-2-yl}-7-methoxy-1-methyl-1H-1,3-benzodiazole-5-carbonyl)-2-azabicyclo[2.2.1]heptan-7-amine] | 123 nM | – |
| COc1cc(C(=O)N2C[C@H]3CC[C@@H]2[C@@H]3N)cc2nc(-c3cc4cccc(C5=CCNCC5)c4n3CC3CC3)n(C)c12 [Example 84] | – | 34 nM |
| COc1cc(C(=O)N2C[C@H]3CC[C@@H]2[C@@H]3N)cc2nc(-c3cc4cccc(-c5ccccc5O)c4n3CC3CC3)n(C)c12 [Example 87, 2-(2-{5-[(1R,4R,7R)-7-amino-2-azabicyclo[2.2.1]heptane-2-carbonyl]-7-methoxy-1-methyl-1H-1,3-benzodiazol-2-yl}-1-(cyclopropylmethyl)-1H-indol-7-yl)phenol] | – | 111 nM |
| C=CC(=O)Nc1cccc(-c2cccc3cc(-c4nc5cc(C(=O)N6C[C@H]7CC[C@@H]6[C@@H]7N)cc(OC)c5n4C)n(CC4CC4)c23)c1 [Example 88, N-[3-(2-{5-[(1R,4R,7R)-7-amino-2-azabicyclo[2.2.1]heptane-2-carbonyl]-7-methoxy-1-methyl-1H-1,3-benzodiazol-2-yl}-1-(cyclopropylmethyl)-1H-indol-7-yl)phenyl]prop-2-enamide] | 56 nM | – |
| COc1cc(C(=O)N2C[C@H]3CC[C@@H]2[C@@H]3N)cc2nc(-c3cc4cccc(-c5ccc(CNC(C)=O)cc5)c4n3CC3CC3)n(C)c12 [Example 89, N-{[4-(2-{5-[(1R,4R,7R)-7-amino-2-azabicyclo[2.2.1]heptane-2-carbonyl]-7-methoxy-1-methyl-1H-1,3-benzodiazol-2-yl}-1-(cyclopropylmethyl)-1H-indol-7-yl)phenyl]methyl}acetamide] | 108 nM | – |
| COc1cc(C(=O)N2C[C@H]3CC[C@@H]2[C@@H]3N)cc2nc(-c3cc4cccc(-c5ccc(O)c(F)c5)c4n3CC3CC3)n(C)c12 [Example 90, 4-(2-{5-[(1R,4R,7R)-7-amino-2-azabicyclo[2.2.1]heptane-2-carbonyl]-7-methoxy-1-methyl-1H-1,3-benzodiazol-2-yl}-1-(cyclopropylmethyl)-1H-indol-7-yl)-2-fluorophenol] | 45 nM | – |
| COc1cc(-c2cccc3cc(-c4nc5cc(C(=O)N6C[C@H]7CC[C@@H]6[C@@H]7N)cc(OC)c5n4C)n(CC4CC4)c23)ccc1O [Example 91, 4-(2-{5-[(1R,4R,7R)-7-amino-2-azabicyclo[2.2.1]heptane-2-carbonyl]-7-methoxy-1-methyl-1H-1,3-benzodiazol-2-yl}-1-(cyclopropylmethyl)-1H-indol-7-yl)-2-methoxyphenol] | 42 nM | – |
| COc1cc(C(=O)N2C[C@H]3CC[C@@H]2[C@@H]3N)cc2nc(-c3cc4cccc(-c5ccc(O)c(Cl)c5)c4n3CC3CC3)n(C)c12 [Example 92, 4-(2-{5-[(1R,4R,7R)-7-amino-2-azabicyclo[2.2.1]heptane-2-carbonyl]-7-methoxy-1-methyl-1H-1,3-benzodiazol-2-yl}-1-(cyclopropylmethyl)-1H-indol-7-yl)-2-chlorophenol] | 58 nM | – |
| COc1cc(C(=O)N2C[C@H]3CC[C@@H]2[C@@H]3N)cc2nc(-c3cc4cccc(-c5ccc(O)cc5Cl)c4n3CC3CC3)n(C)c12 [Example 93, 4-(2-{5-[(1R,4R,7R)-7-amino-2-azabicyclo[2.2.1]heptane-2-carbonyl]-7-methoxy-1-methyl-1H-1,3-benzodiazol-2-yl}-1-(cyclopropylmethyl)-1H-indol-7-yl)-3-chlorophenol] | 53 nM | – |
| COc1cc(C(=O)N2C[C@H]3CC[C@@H]2[C@@H]3N)cc2nc(-c3cc4cccc(-c5cc(F)c(O)cc5F)c4n3CC3CC3)n(C)c12 [Example 94, 4-(2-{5-[(1R,4R,7R)-7-amino-2-azabicyclo[2.2.1]heptane-2-carbonyl]-7-methoxy-1-methyl-1H-1,3-benzodiazol-2-yl}-1-(cyclopropylmethyl)-1H-indol-7-yl)-2,5-difluorophenol] | 45 nM | – |
| COc1cc(C(=O)N2C[C@H]3CC[C@@H]2[C@@H]3N)cc2nc(-c3cc4cccc(-c5ccc6[nH]c(=O)cc(C)c6c5)c4n3CC3CC3)n(C)c12 [Example 95, 6-(2-{5-[(1R,4R,7R)-7-amino-2-azabicyclo[2.2.1]heptane-2-carbonyl]-7-methoxy-1-methyl-1H-1,3-benzodiazol-2-yl}-1-(cyclopropylmethyl)-1H-indol-7-yl)-4-methyl-1,2-dihydroquinolin-2-one] | 107 nM | – |
| COc1cc(C(=O)N2C[C@H]3CC[C@@H]2[C@@H]3N)cc2nc(-c3cc4cccc(-c5cccc6c5CNC6=O)c4n3CC3CC3)n(C)c12 [Example 96, 4-(2-{5-[(1R,4R,7R)-7-amino-2-azabicyclo[2.2.1]heptane-2-carbonyl]-7-methoxy-1-methyl-1H-1,3-benzodiazol-2-yl}-1-(cyclopropylmethyl)-1H-indol-7-yl)-2,3-dihydro-1H-isoindol-1-one] | 144 nM | – |
| COc1cc(C(=O)N2C[C@H]3CC[C@@H]2[C@@H]3N)cc2nc(-c3cc4cccc(-c5ccc6c(c5)CCC(=O)N6)c4n3CC3CC3)n(C)c12 [Example 99, 6-(2-{5-[(1R,4R,7R)-7-amino-2-azabicyclo[2.2.1]heptane-2-carbonyl]-7-methoxy-1-methyl-1H-1,3-benzodiazol-2-yl}-1-(cyclopropylmethyl)-1H-indol-7-yl)-1,2,3,4-tetrahydroquinolin-2-one] | 38 nM | – |

Other lines, results leading:

| IC50 [1] | IC50 [2] | SMILES |
| --- | --- | --- |
| 19 nM | – | COc1cc(C(=O)N2C[C@H]3CC[C@@H]2[C@@H]3N)cc2nc(-c3cc4cccc(C5CN(C(=O)Cc6cnccn6)C5)c4n3CC3CC3)n(C)c12 [Example 76, 1-[3-(2-{5-[(1R,4R,7R)-7-amino-2-azabicyclo[2.2.1]heptane-2-carbonyl]-7-methoxy-1-methyl-1H-1,3-benzodiazol-2-yl}-1-(cyclopropylmethyl)-1H-indol-7-yl)azetidin-1-yl]-2-(pyrazin-2-yl)ethan-1-one] |
| 10 nM | – | COc1cc(C(=O)N2C[C@H]3CC[C@@H]2[C@@H]3N)cc2nc(-c3cc4cccc(C5CN(C(=O)Cc6cccnc6)C5)c4n3CC3CC3)n(C)c12 [Example 78, 1-[3-(2-{5-[(1R,4R,7R)-7-amino-2-azabicyclo[2.2.1]heptane-2-carbonyl]-7-methoxy-1-methyl-1H-1,3-benzodiazol-2-yl}-1-(cyclopropylmethyl)-1H-indol-7-yl)azetidin-1-yl]-2-(pyridin-3-yl)ethan-1-one] |
| 12 nM | – | COc1cc(C(=O)N2C[C@H]3CC[C@@H]2[C@@H]3N)cc2nc(-c3cc4cccc(C5CN(C(=O)CCc6ccccc6)C5)c4n3CC3CC3)n(C)c12 [Example 79, 1-[3-(2-{5-[(1R,4R,7R)-7-amino-2-azabicyclo[2.2.1]heptane-2-carbonyl]-7-methoxy-1-methyl-1H-1,3-benzodiazol-2-yl}-1-(cyclopropylmethyl)-1H-indol-7-yl)azetidin-1-yl]-3-phenylpropan-1-one] |
| 16 nM | – | COc1cc(C(=O)N2C[C@H]3CC[C@@H]2[C@@H]3N)cc2nc(-c3cc4cccc(C5CN(C(=O)CCO)C5)c4n3CC3CC3)n(C)c12 [Example 80, 1-[3-(2-{5-[(1R,4R,7R)-7-amino-2-azabicyclo[2.2.1]heptane-2-carbonyl]-7-methoxy-1-methyl-1H-1,3-benzodiazol-2-yl}-1-(cyclopropylmethyl)-1H-indol-7-yl)azetidin-1-yl]-3-hydroxypropan-1-one] |
| 16 nM | – | COc1cc(C(=O)N2C[C@H]3CC[C@@H]2[C@@H]3N)cc2nc(-c3cc4cccc(C5CN(C(=O)Cc6nnn[nH]6)C5)c4n3CC3CC3)n(C)c12 [Example 81, 1-[3-(2-{5-[(1R,4R,7R)-7-amino-2-azabicyclo[2.2.1]heptane-2-carbonyl]-7-methoxy-1-methyl-1H-1,3-benzodiazol-2-yl}-1-(cyclopropylmethyl)-1H-indol-7-yl)azetidin-1-yl]-2-(1H-1,2,3,4-tetrazol-5-yl)ethan-1-one] |
| 10 nM | – | COc1cc(C(=O)N2C[C@H]3CC[C@@H]2[C@@H]3N)cc2nc(-c3cc4cccc(C5CN(C(=O)CO)C5)c4n3CC3CC3)n(C)c12 [Example 82, 1-[3-(2-{5-[(1R,4R,7R)-7-amino-2-azabicyclo[2.2.1]heptane-2-carbonyl]-7-methoxy-1-methyl-1H-1,3-benzodiazol-2-yl}-1-(cyclopropylmethyl)-1H-indol-7-yl)azetidin-1-yl]-2-hydroxyethan-1-one] |
| 23 nM | – | COc1cc(C(=O)N2C[C@H]3CC[C@@H]2[C@@H]3N)cc2nc(-c3cc4cccc(-c5ccc6c(c5)CC(=O)N6)c4n3CC3CC3)n(C)c12 [Example 97, 2′-{5-[(1R,4R,7R)-7-amino-2-azabicyclo[2.2.1]heptane-2-carbonyl]-7-methoxy-1-methyl-1H-1,3-benzodiazol-2-yl}-1′-(cyclopropylmethyl)-2,3-dihydro-1H,1′H-[5,7′-biindole]-2-one] |
| 35 nM | – | COc1cc(C(=O)N2C[C@H]3CC[C@@H]2[C@@H]3N)cc2nc(-c3cc4cccc(-c5ccc6c(c5)C(=O)NC6)c4n3CC3CC3)n(C)c12 [Example 98, 6-(2-{5-[(1R,4R,7R)-7-amino-2-azabicyclo[2.2.1]heptane-2-carbonyl]-7-methoxy-1-methyl-1H-1,3-benzodiazol-2-yl}-1-(cyclopropylmethyl)-1H-indol-7-yl)-2,3-dihydro-1H-isoindol-1-one] |

— patent US20220402950A1, “SUBSTITUTED BENZIMIDAZOLES AS PAD4 INHIBITORS” (BRISTOL-MYERS SQUIBB COMPANY, priority 2018, published 2022)
